Among the data in US20240190849A1, “AMINOPYRIMIDINE COMPOUNDS AND METHODS OF THEIR USE” (TYRA BIOSCIENCES, INC., priority 2021, published 2024) are Kd and IC50 values, retold here.

SMILES strings stand for the structures.

For orientation: Kd means the concentration at which binding is half-saturated. Read a low Kd as a tighter complex. In general, IC50 refers to the point on the concentration scale where inhibition reaches its midpoint.

One assay concerns the target T1, FGFR3 (Homo sapiens, UniProt P22607).
T1 construct: made in house; host or cells: E. coli derived from BL21, infected with T7 phage
Nature of the assay: Kinase binding assay (kinase-tagged T7 phage, affinity beads, qPCR readout), FGFR3. The conditions noted are these: FGFR binding data. The procedure, abridged: (§1)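 Phage lysate kinase + liganded magnetic beads + compound, 11-pt 3-fold series, 0.9% DMSO; 1 h RT shaking. Wash, elute 30 min with 0.5 μM non-biotinylated ligand; qPCR readout. Hill fit, slope −1 → Kd.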
For orientation: Real-time PCR tracks product formation cycle by cycle.

The target of the next assay is T2, FGFR3 (V555M) (Homo sapiens, UniProt P22607, V555M).
T2 construct: made in house; host or cells: E. coli derived from BL21, infected with T7 phage
Nature of the assay: Kinase binding assay (kinase-tagged T7 phage, affinity beads, qPCR readout), FGFR3 (V555M). Conditions: FGFR binding data. An outline of the steps: as §1

The test system of assay [1] is SNU-16 (Gastric Carcinoma), FGFR2 amplification. Nature of the assay: Cancer cell viability assay (Cell Titer-Glo), SNU-16. It counts as cell-based. The conditions noted are these: Homo sapiens, SNU-16 cells, 72 hours, read-out: SNU16 FGFR2 (IC50 nM). From the text: RT112/84, UM-UC-14, SNU-16 and KG-1 Cancer Cell Line Cell Viability Assays
To detect the change of intracellular ATP by Cell Titer-Glo@ and to evaluate the inhibitory effect of the compounds on cancer cell lines by determining the in vitro IC50 value of the compounds.
Cell Titer-Glo@ 2.0 Luminescent cell viability assay reagent was purchased from Promega (Madison, WI). RT112/84, SNU-16, and KG-1 cell lines were purchased from American Type Culture Collection (Manassas, VA). UM-UC-14 cell line was purchased from Sigma (St. Louis, MO). RT112/84, UM-UC-14, SNU-16, and KG-1 cells were cultured in RPMI1640 media supplemented with 10% fetal bovine serum. Cultures were maintained at 37° C. in a humidified atmosphere of 5% CO2 and 95% air.
Cell Viability Assay Procedure: Cells were plated in 96-well clear bottom/white plates (Corning #3903) at 10,000 cells/well in 100 μl of media, incubated overnight. The next day, test compound DMSO stock solutions were made at 10 mM and 2 μM final concentration. Compounds were then added to cells in a 9-dose, […] dilution series starting at 30 μM with an HP 300e Digital Dispenser (each dose was applied in triplicate). DMSO was backfilled to each well up to 301 nL total volume of test compound+DMSO, and a total of 301 nL DMSO was added to a control/no test compound well in triplicate. The cells in cell culture plates were incubated with the compounds at 37° C. and 5% CO2 for 72 hours. Then 50 μl of Cell Titer Glo 2.0 reagent was added to each well of the cell culture plates. The contents were covered from light and mixed on an orbital shaker at room temperature for 10 min. Luminescence was recorded by a Synergy H1 Microplate Reader (Biotek, Winooski, VT). Cells were assessed as a percentage of DMSO only treated control cells. Curves were plotted and IC50 values were calculated using the GraphPad Prism 8 program based on a sigmoidal dose-response equation (4 parameter).
Background: ATP-based viability assays read luminescence as a measure of living cells.

The next assay addresses T3, FGFR1 (Homo sapiens, UniProt P11362).
T3 construct: made in house; host or cells: E. coli derived from BL21, infected with T7 phage
Nature of the assay: Kinase binding assay (kinase-tagged T7 phage, affinity beads, qPCR readout), FGFR1. Conditions: FGFR binding data. The procedure, abridged: as §1

The next assay deals with T4, FGFR2 (Homo sapiens, UniProt P21802).
T4 construct: made in house; host or cells: E. coli derived from BL21, infected with T7 phage
The experiment in a line: Kinase binding assay (kinase-tagged T7 phage, affinity beads, qPCR readout), FGFR2. Conditions: FGFR binding data. The procedure, abridged:
as §1

T2 sequence (P22607 23-806 V555M): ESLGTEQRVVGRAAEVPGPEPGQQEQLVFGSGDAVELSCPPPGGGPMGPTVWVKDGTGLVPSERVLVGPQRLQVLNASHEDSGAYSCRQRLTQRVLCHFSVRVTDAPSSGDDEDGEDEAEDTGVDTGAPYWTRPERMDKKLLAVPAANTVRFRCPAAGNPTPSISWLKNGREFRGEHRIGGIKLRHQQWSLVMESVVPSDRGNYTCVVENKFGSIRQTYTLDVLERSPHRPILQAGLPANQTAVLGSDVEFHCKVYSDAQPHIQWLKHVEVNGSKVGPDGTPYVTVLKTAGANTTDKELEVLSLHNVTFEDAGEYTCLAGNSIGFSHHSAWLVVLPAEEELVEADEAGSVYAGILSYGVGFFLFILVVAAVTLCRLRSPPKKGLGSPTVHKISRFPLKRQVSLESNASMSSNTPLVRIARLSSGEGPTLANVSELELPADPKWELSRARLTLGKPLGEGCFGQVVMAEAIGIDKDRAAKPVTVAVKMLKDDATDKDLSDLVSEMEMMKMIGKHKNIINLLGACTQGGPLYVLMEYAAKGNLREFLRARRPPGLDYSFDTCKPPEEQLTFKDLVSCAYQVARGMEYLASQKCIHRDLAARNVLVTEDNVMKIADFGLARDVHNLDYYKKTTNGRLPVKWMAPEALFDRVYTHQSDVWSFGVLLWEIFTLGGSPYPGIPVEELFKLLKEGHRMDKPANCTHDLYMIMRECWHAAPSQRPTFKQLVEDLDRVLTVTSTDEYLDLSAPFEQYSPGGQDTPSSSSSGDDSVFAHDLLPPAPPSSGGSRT
T4 sequence (P21802 22-821): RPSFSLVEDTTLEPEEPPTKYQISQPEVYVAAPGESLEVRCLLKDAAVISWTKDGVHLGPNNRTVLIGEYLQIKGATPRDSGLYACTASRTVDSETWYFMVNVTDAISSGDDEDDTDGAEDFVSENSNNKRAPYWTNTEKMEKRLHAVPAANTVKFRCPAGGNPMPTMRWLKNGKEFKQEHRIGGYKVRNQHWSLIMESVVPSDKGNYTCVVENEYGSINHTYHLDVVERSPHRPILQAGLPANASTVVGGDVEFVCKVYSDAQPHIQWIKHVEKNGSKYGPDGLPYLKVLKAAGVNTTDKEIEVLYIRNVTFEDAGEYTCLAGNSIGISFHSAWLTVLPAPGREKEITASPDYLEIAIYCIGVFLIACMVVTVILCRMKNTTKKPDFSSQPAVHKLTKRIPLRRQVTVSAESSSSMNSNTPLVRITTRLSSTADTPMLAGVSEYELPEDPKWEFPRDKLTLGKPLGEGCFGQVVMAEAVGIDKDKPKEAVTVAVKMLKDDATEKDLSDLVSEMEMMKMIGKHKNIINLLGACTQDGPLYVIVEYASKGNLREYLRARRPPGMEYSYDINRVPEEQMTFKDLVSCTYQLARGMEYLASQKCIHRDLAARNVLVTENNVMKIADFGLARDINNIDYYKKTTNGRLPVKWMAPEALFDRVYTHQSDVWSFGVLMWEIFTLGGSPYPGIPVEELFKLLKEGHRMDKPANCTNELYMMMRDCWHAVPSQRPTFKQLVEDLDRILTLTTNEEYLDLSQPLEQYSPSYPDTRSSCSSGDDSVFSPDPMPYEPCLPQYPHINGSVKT
T3 sequence (P11362 22-822): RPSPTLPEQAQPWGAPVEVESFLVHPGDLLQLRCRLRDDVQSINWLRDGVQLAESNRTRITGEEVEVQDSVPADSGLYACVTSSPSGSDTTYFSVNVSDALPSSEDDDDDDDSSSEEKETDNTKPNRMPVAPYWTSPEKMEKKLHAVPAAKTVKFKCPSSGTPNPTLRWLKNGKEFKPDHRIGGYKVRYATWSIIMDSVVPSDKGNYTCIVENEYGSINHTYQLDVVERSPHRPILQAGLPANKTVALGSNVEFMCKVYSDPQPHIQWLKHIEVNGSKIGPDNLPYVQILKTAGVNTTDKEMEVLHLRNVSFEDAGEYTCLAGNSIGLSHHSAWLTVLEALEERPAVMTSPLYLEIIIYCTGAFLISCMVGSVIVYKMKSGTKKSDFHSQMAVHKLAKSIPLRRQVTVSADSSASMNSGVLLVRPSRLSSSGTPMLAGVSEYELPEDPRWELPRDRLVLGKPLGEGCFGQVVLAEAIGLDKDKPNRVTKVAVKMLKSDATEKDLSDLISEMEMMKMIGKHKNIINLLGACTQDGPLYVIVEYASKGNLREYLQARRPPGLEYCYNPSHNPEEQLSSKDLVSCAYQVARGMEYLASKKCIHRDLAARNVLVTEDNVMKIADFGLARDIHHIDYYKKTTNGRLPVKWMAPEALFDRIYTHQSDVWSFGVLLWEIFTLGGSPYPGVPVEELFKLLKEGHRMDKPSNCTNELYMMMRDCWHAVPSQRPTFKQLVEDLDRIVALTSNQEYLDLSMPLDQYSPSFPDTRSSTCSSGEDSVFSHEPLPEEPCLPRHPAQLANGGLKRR
T1 sequence (P22607 23-806): as the sequence (P22607 23-806 V555M) above, with M533V counted along it

`C=CC(=O)Nc1cnc2c(c1)c(C)cn2-c1nc(Nc2ccn(C)n2)ncc1C` [Example 97, N-[3-methyl-1-[5-methyl-2-[(1-methylpyrazol-3-yl)amino]pyrimidin-4-yl]pyrrolo[2,3-b]pyridin-5-yl]prop-2-enamide]: the Kd at FGFR3, at FGFR3 (V555M), at FGFR1 and on FGFR2 was 0.1 to 100 nM each time. In assay [1], the IC50 is 0.1 to 100 nM.
Regarding `C=CC(=O)Nc1ccc2c(c1)c(C)cn2-c1nc(Nc2ccn(CCO)n2)ncc1C` [Example 100, N-[1-[2-[[1-(2-hydroxyethyl)pyrazol-3-yl]amino]-5-methyl-pyrimidin-4-yl]-3-methyl-indol-5-yl]prop-2-enamide], the Kd on FGFR3, on FGFR3 (V555M), on FGFR1 and on FGFR2 was 0.1 to 100 nM in each case. The IC50 in assay [1] lay in the range of 0.1 to 100 nM.
On to `C=CC(=O)Nc1ccc2c(c1)c(C)cn2-c1nc(Nc2cc(C)n(C)n2)ncc1C` [Example 102, N-[1-[2-[(1,5-dimethylpyrazol-3-yl)amino]-5-methyl-pyrimidin-4-yl]-3-methyl-indol-5-yl]prop-2-enamide], for which the Kd at FGFR3, on FGFR3 (V555M), on FGFR1 and at FGFR2 was 0.1 to 100 nM in each case. For the same molecule, the IC50 in assay [1] is 0.1 to 100 nM.
For the molecule `C=CC(=O)Nc1ccc2c(-c3ccnc(Nc4cc(C)n(C)n4)n3)cn(C)c2c1` [Example 103, N-[3-[2-[(1,5-dimethylpyrazol-3-yl)amino]pyrimidin-4-yl]-1-methyl-indol-6-yl]prop-2-enamide], the Kd on FGFR3 lay in the range of 0.1 to 100 nM; at FGFR3 (V555M), 100 to 250 nM; on FGFR1 it was 250 to 1000 nM; at FGFR2 it was 100 to 250 nM. Moreover, the IC50 in assay [1] is 0.1 to 100 nM.
Regarding `Cc1cnc(Nc2ccnn2C)nc1-n1cc(C)c2cc(NC(=O)/C=C/CN(C)C)ccc21` [Example 107, (E)-4-(dimethylamino)-N-[3-methyl-1-[5-methyl-2-[(2-methylpyrazol-3-yl)amino]pyrimidin-4-yl]indol-5-yl]but-2-enamide], the Kd was 0.1 to 100 nM on FGFR3, 0.1 to 100 nM at FGFR3 (V555M), 250 to 1000 nM at FGFR1 and 100 to 250 nM on FGFR2. In addition, the IC50 in assay [1] was in the range of 0.1 to 100 nM.
For the molecule `C=CC(=O)Nc1ccc2c(c1)c(C)cn2-c1nc(Nc2ccn(C3COC3)n2)ncc1C` [Example 120, N-[3-methyl-1-[5-methyl-2-[[1-(oxetan-3-yl)pyrazol-3-yl]amino]pyrimidin-4-yl]indol-5-yl]prop-2-enamide], the Kd at FGFR3, at FGFR3 (V555M), on FGFR1 and at FGFR2 was 0.1 to 100 nM in each case. In assay [1], the IC50 fell in the range of 0.1 to 100 nM.
Turning to `Cc1cnc(Nc2cnn(CCO)c2)nc1-n1cc(C)c2cc(NC(=O)/C=C/CN(C)C)ccc21` [Example 122, (E)-4-(dimethylamino)-N-[1-[2-[[1-(2-hydroxyethyl)pyrazol-4-yl]amino]-5-methyl-pyrimidin-4-yl]-3-methyl-indol-5-yl]but-2-enamide], the Kd at FGFR3, on FGFR3 (V555M), on FGFR1 and at FGFR2 was 0.1 to 100 nM each time. In addition, the IC50 in assay [1] was in the range of 0.1 to 100 nM.
Turning to `C=CC(=O)Nc1ccc2c(c1)c(C)cn2-c1nc(Nc2cc(C)[nH]n2)ncc1C` [Example 123, N-[3-methyl-1-[5-methyl-2-[(5-methyl-1H-pyrazol-3-yl)amino]pyrimidin-4-yl]indol-5-yl]prop-2-enamide], the Kd on FGFR3, at FGFR3 (V555M), at FGFR1 and at FGFR2 was 0.1 to 100 nM throughout. Also, the IC50 in assay [1] was 0.1 to 100 nM.
On to `C=CC(=O)Nc1cnc2c(c1)c(C)cn2-c1nc(Nc2cc(C)n(C(=O)OC(C)(C)C)n2)ncc1C` [Example 124, tert-butyl 5-methyl-3-[[5-methyl-4-[3-methyl-5-(prop-2-enoylamino)pyrrolo[2,3-b]pyridin-1-yl]pyrimidin-2-yl]amino]pyrazole-1-carboxylate], for which the Kd lay within 0.1 to 100 nM at FGFR3, 0.1 to 100 nM at FGFR3 (V555M), 100 to 250 nM at FGFR1 and 100 to 250 nM on FGFR2. The 50% inhibitory concentration (IC50) in assay [1] lay in the range of 0.1 to 100 nM.
Take `C=CC(=O)Nc1ccc2c(c1)c(C)cn2-c1cc(Nc2cnn(C)c2)ncn1` [Example 219, N-[3-methyl-1-[6-[(1-methylpyrazol-4-yl)amino]pyrimidin-4-yl]indol-5-yl]prop-2-enamide]: the Kd on FGFR3 was 100 to 250 nM; at FGFR3 (V555M), 250 to 1000 nM; on FGFR1, greater than 1000 nM; at FGFR2, 250 to 1000 nM.
Regarding `C=CC(=O)Nc1ccc2c(c1)c(C)cn2-c1ncnc(Nc2cn(C)nc2C)n1` [Example 220, N-[1-[4-[(1,3-dimethylpyrazol-4-yl)amino]-1,3,5-triazin-2-yl]-3-methyl-indol-5-yl]prop-2-enamide], the dissociation constant (Kd) is 100 to 250 nM at FGFR3, 100 to 250 nM on FGFR3 (V555M), 250 to 1000 nM at FGFR1 and 250 to 1000 nM on FGFR2.
`C=CC(=O)Nc1ccc2c(c1)c(C)cn2-c1cc(Nc2cnn(C)c2)nnc1C` [Example 221, N-[3-methyl-1-[3-methyl-6-[(1-methylpyrazol-4-yl)amino]pyridazin-4-yl]indol-5-yl]prop-2-enamide]: the Kd at FGFR3, on FGFR3 (V555M), on FGFR1 and on FGFR2 was greater than 1000 nM throughout.
In the case of `C=CC(=O)Nc1ccc2c(c1)c(C)cn2-c1cc(Nc2cn(C)nc2C)ncn1` [Example 222, N-[1-[6-[(1,3-dimethylpyrazol-4-yl)amino]pyrimidin-4-yl]-3-methyl-indol-5-yl]prop-2-enamide], the Kd at FGFR3, on FGFR3 (V555M), at FGFR1 and on FGFR2 was greater than 1000 nM in each case.
Turning to `C=CC(=O)Nc1ccc2c(c1)c(C)cn2-c1cc(Nc2cnn(C)c2)ncc1C` [Example 223, N-[3-methyl-1-[5-methyl-2-[(1-methylpyrazol-4-yl)amino]-4-pyridyl]indol-5-yl]prop-2-enamide], the Kd at FGFR3, on FGFR3 (V555M), at FGFR1 and at FGFR2 was 0.1 to 100 nM in each case.
As for `C=CC(=O)Nc1ccc2c(c1)c(C)cn2-c1cc(Nc2cn(C)nc2C)ncc1C` [Example 224, N-[1-[2-[(1,3-dimethylpyrazol-4-yl)amino]-5-methyl-4-pyridyl]-3-methyl-indol-5-yl]prop-2-enamide], the Kd on FGFR3 lay within 100 to 250 nM; on FGFR3 (V555M), 100 to 250 nM; on FGFR1, 250 to 1000 nM; on FGFR2 it was 250 to 1000 nM.
Take `C=CC(=O)Nc1ccc2c(c1)c(C)cn2-c1nc(Nc2cn(C)nc2C)nnc1Cl` [Example 225, N-[1-[6-chloro-3-[(1,3-dimethylpyrazol-4-yl)amino]-1,2,4-triazin-5-yl]-3-methyl-indol-5-yl]prop-2-enamide]: the Kd was 250 to 1000 nM on FGFR3, 250 to 1000 nM at FGFR3 (V555M), greater than 1000 nM at FGFR1 and greater than 1000 nM at FGFR2.
`C=CC(=O)Nc1ccc2c(c1)c(C)c(C)n2-c1nc(Nc2cnn(C)c2)ncc1F` [Example 226, N-[1-[5-fluoro-2-[(1-methylpyrazol-4-yl)amino]pyrimidin-4-yl]-2,3-dimethyl-indol-5-yl]prop-2-enamide]: the Kd on FGFR3, on FGFR3 (V555M), on FGFR1 and on FGFR2 was 0.1 to 100 nM each time.
Turning to `C=CC(=O)Nc1ccc2c(c1)cc(C)n2-c1nc(Nc2cnn(C)c2)ncc1F` [Example 227, N-[1-[5-fluoro-2-[(1-methylpyrazol-4-yl)amino]pyrimidin-4-yl]-2-methyl-indol-5-yl]prop-2-enamide], the Kd is 0.1 to 100 nM on FGFR3, 0.1 to 100 nM at FGFR3 (V555M), 100 to 250 nM at FGFR1 and 0.1 to 100 nM on FGFR2.
With `C=CC(=O)Nc1ccc2c(c1)c1ccccc1n2-c1nc(Nc2cnn(C)c2)ncc1F` [Example 228, N-[9-[5-fluoro-2-[(1-methylpyrazol-4-yl)amino]pyrimidin-4-yl]carbazol-3-yl]prop-2-enamide], the Kd on FGFR3 was 0.1 to 100 nM; on FGFR3 (V555M), greater than 1000 nM; on FGFR1 it was 0.1 to 100 nM; at FGFR2 it was 0.1 to 100 nM.
